Columns and labels:
[1] = molecular target: full length USP7 (Homo sapiens (Human), UniProt Q93009); experiment: Ub-AMC enzymatic assay with full-length USP7; assay type: biochemical; details: full-length USP7, Ub-AMC
Protocol: Both constructs were overexpressed in E. coli BL21 (DE3). Cells were grown at 37° C. to an OD of 0.9, cooled to 16° C., induced with 500 μM isopropyl-1-thio-D-galactopyranoside (IPTG), incubated overnight at 16° C., collected by centrifugation, and stored at −80° C. Cell pellets were sonicated in lysis buffer (25 mM Tris pH 8, 1 M NaCl, and 10 mM BME) supplemented with 10 μg/ml phenylmethanesulfonylfluoride (PMSF) and the resulting lysate was centrifuged at 30,000×g for 40 min. Ni-NTA beads (Qiagen) were mixed with lysate supernatant for 2 hours, and washed with lysis buffer supplemented with 25 mM imidazole. The bound protein was eluted with lysis buffer supplemented with 300 mM imidazole. The sample was then concentrated to 1 ml (30 kDa concentrator; Amicon Ultra, Millipore), and run on a Superdex 200 (GE healthcare) in buffer containing 25 mM HEPES pH 7.5, 200 mM NaCl, and 1 mM DTT. Fractions were pooled, concentrated and frozen at −80° C.
Full length USP7 was tested for its activity in Ubiquitin-AMC assay in presence or absence of inhibitors. USP7 (5 nM) was pre-incubated for 6 hours at room temperature with different concentrations of inhibitors or DMSO as a control in 50 mM HEPES pH 7.5, 0.5 mM EDTA, 11 μM ovalbumin, and 5 mM DTT. Ubiquitin-AMC (Boston Biochem) was then added to a final concentration of 500 nM. The initial rate of the reaction was measured by collecting fluorescence data at one minute intervals over 30-minute period using a Clariostar fluorescence plate reader at excitation and emission wavelength of 345 and 445 nm respectively. The calculated initial rate values were plotted against inhibitor concentrations to determine IC50s. All the experimental data were plotted using Prism GraphPad. All assays for each compound were performed at least twice for each compound.

[2] = molecular target: USP7 catalytic domain (Homo sapiens (Human), UniProt Q93009); experiment: MS labeling of purified USP7 catalytic domain (intact MS, CE-MS); assay type: binding
USP7 catalytic domain, sequence (Q93009 208-560): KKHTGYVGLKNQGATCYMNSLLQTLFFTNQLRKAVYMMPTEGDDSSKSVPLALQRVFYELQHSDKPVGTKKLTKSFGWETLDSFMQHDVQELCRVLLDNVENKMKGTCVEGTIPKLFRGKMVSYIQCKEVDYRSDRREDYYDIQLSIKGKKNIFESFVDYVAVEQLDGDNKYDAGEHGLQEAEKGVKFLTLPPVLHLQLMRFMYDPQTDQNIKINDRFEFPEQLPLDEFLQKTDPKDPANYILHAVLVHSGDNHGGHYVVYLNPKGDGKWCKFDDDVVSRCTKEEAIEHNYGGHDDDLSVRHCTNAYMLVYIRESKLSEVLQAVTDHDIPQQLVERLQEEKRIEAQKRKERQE
Protocol: Purified USP7 catalytic domain was diluted to 20 μM in 10 μL labeling buffer (20 mM HEPES pH 7.5, 150 mM NaCl, 1 mM TCEP) and incubated for the indicated times with 50 μM (2.5×) compound. After incubation, samples were flash frozen in liquid nitrogen and stored at −80° C. until analysis.
Intact mass analysis was performed by injecting 5 μg USP7 catalytic domain onto a self-packed reversed phase column ( 1/32″ O.D.×500 um I.D., 5 cm of POROS 10R2 resin). After desalting, protein was eluted with an HPLC gradient (0-100% B in 4 minutes, A=0.2M acetic acid in water, B=0.2 M acetic acid in acetonitrile, flow rate ˜30 μL/min) into an LTQ ion trap mass spectrometer (ThermoFisher Scientific, San Jose, CA). Mass spectra were deconvoluted using MagTran1.03b2 software. Zhang, Z. & Marshall, A. G. A universal algorithm for fast and automated charge state deconvolution of electrospray mass-to-charge ratio spectra. J. Am. Soc. Mass Spectrom. 9, 225-233 (1998).
To identify sites of covalent modification, treated protein was reduced (10 mM dithiothreitol), alkylated (22.5 mM iodoacetamide), and digested with trypsin overnight at 37° C. Peptides were desalted using SP3 (Hughes, C. S. et al. Ultrasensitive proteome analysis using paramagnetic bead technology. Mol. Syst. Biol. 10, 757-757 (2014)), dried by vacuum centrifugation, and reconstituted in 1% formic acid/50% acetonitrile with 100 mM ammonium acetate. Peptides were then analyzed by CE-MS using a ZipChip CE system and autosampler (908 Devices, Boston, MA) interfaced to a QExactive HF mass spectrometer (ThermoFisher Scientific, San Jose, CA). Peptide solution was loaded for 30 seconds, and the mass spectrometer was operated in data dependent mode and subjected the 5 most abundant ions in each MS scan (60 k resolution, 3E6 target, lock mass enabled) to MS/MS (15 k resolution, 1E5 target, 100 ms max inject time). Dynamic exclusion was enabled with a repeat count of 1 and an exclusion time of 6 seconds. […]

[3] = system: TC32 cells expressing sgTP53; experiment: Cell proliferation of TC32 cells with TP53 knockout; assay type: cell-based; details: 3 days
Protocol: (§1) Cells were plated in 384-well culture-treated plates and allowed to settle overnight. After drug treatment and appropriate incubation time, cell viability was assessed using the CellTiter-Glo Luminescent Cell Viability Assay (Promega). Luminescence was read on a Fluostar Omega Reader (BMG Labtech).
Lentivirus was produced by transfecting HEK-293T cells with the pLentiV2 vector (Addgene plasmid #52961) and the packaging plasmids pCMV8.9 and pCMV-VSVG according to the FuGENE 6 (Roche) protocol. For lentiviral transduction, Ewing sarcoma cells were incubated with 2 mL of virus and 8 μg/mL of polybrene (Sigma-Aldrich). Cells were selected in puromycin (Sigma-Aldrich) 48 hours after infection for single knockout experiments.
sgRNAs were designed using the Broad Institute's sgRNA designer tool. The following sequences were used as control or to target the respective genes: […]

[4] = system: A673 cells; experiment: Cell proliferation (CellTiter-Glo), A673; assay type: cell-based; details: TP53-mutant, 3 days
Protocol: as §1

full length USP7, sequence (Q93009 whole entry): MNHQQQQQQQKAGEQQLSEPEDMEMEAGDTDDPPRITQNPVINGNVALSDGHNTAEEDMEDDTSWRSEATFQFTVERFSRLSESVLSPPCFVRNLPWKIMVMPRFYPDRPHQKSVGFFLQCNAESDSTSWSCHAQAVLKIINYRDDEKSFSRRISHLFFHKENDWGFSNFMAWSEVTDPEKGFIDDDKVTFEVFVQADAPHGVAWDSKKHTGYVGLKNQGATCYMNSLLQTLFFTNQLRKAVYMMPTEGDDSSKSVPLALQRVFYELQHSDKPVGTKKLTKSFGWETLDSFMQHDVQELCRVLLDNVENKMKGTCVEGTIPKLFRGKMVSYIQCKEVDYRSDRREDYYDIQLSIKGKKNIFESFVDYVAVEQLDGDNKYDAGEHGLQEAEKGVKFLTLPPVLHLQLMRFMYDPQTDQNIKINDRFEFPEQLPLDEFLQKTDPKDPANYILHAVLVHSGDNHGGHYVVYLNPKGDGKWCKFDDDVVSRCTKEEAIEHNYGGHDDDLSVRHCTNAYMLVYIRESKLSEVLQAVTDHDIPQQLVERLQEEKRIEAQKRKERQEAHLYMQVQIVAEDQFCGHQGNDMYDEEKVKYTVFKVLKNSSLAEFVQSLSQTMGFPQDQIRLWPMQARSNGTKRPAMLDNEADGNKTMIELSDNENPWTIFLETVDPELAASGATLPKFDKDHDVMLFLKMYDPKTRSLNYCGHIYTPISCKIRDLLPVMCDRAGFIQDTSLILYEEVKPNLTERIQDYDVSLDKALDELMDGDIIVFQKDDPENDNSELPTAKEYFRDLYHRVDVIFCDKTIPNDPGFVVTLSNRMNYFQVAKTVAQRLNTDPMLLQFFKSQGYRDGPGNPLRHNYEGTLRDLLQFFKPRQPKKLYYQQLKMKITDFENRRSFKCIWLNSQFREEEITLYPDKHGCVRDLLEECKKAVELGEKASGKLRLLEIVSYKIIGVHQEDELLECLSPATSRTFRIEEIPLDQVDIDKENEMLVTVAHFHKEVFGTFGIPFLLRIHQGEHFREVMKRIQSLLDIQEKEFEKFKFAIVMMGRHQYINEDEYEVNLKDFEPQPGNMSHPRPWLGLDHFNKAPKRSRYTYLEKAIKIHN

- IC50 against USP7 (range in words) [1]: subnanomolar range
- site of covalent modification (MS/MS) [2]: binding to the catalytic residue, C223
- labeling of USP7 catalytic domain by MS ([2]; 15 minutes incubation): Quantitative labeling of USP7
Compound: CN1CCN(CCC(=O)Nc2ccc3c(=O)n(CC4(O)CCN(C(=O)[C@@H](CCCNC(=O)c5ccc6c(Cl)c7c(nc6c5)CCCC7)Cc5ccccc5)CC4)cnc3c2)CC1 [compound 6, (S)—N-(4-benzyl-5-(4-hydroxy-4-((7-(3-(4-methylpiperazin-1-yl)propanamido)-4-oxoquinazolin-3(4H)-yl)methyl)piperidin-1-yl)-5-oxopentyl)-9-chloro-5,6,7,8-tetrahydroacridine-3-carboxamide]
- cytotoxic effect after TP53 knockout [3]: rescued by TP53 knockout
- growth inhibition [4]: neither TP53-mutant A673 or TC71 was substantially inhibited

Source: patent US12503453B2, “USP7 inhibition” (Dana-Farber Cancer Institute, Inc., priority 2018, dated 2025)
